The values below come from patent publication US9890117B2, “Benzamide compounds and related methods of use” (Northwestern University, priority 2012, dated 2018).

In brackets after ≈: the same amount, converted by molar mass.

For orientation: inhibition means the percentage by which the read-out fell short of the control. The solubility is how much of the substance goes into solution per volume. Read a low solubility as a poorly soluble substance. Broadly, the microsomal CLint is the rate of metabolic loss divided by the concentration. Low values mean slow turnover, high ones rapid turnover. As a reminder, the half-life is the time in which the quantity being followed falls by half. The low end stands for fast loss, the high end for slow loss.

For data set [1] the following is noted: cited from earlier work.
For the next data set, the target named is T1, SIRT1 (Homo sapiens, UniProt Q96EB6).
T1 sequence (Q96EB6 1-747): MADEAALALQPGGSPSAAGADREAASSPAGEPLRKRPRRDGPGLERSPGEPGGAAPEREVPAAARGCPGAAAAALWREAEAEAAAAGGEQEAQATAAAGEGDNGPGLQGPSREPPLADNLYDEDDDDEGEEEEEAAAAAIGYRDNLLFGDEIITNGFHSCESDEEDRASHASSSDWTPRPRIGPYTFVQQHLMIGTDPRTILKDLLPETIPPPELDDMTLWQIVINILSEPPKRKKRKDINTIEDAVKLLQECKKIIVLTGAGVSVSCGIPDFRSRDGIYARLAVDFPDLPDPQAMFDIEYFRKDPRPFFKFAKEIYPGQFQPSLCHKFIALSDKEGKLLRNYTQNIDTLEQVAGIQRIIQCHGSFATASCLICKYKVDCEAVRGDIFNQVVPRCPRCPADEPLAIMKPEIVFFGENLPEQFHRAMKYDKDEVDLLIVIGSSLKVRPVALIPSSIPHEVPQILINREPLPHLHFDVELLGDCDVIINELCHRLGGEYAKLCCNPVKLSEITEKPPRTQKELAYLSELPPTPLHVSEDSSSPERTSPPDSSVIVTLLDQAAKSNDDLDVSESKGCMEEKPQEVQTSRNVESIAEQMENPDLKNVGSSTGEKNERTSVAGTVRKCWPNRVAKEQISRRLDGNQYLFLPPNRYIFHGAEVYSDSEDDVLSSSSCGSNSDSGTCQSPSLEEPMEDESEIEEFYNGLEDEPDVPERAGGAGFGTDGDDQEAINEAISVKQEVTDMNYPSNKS
The data set is described as follows: Fluor-de-Lys biochemical sirtuin deacetylation assay, SIRT1 counter-screen. As to conditions: for SIRT1 inhibition: 10 μM counter-screen. The protocol: (§1) To evaluate the potency and selectivity of the synthesized compounds robust, sensitive, and quantitative, biochemical sirtuin deacetylation assays were employed. (SIRT2 then SIRT1 and SIRT3 for selectivity). Sirtuin activity was assessed using the Fluor-de-Lys assay with recombinant active enzymes SIRT1, SIRT2, and the catalytically active fragment of SIRT3, as described in the literature. […] AK-1 was included as the reference compound with each assay. […] Those compounds also were subjected to SIRT1 and SIRT3 assays to determine sirtuin selectivity.
(§2) As discussed above, Tables 1-10 are presented and followed by details relating to the synthesis and characterization of compounds prepared. Inhibition assays and related testing of such compounds are conducted according to well-known literature protocols including those found in Silverman, et al., Biorg. Med. Chem. Lett. 22 (2012) 2789-2793 and the references cited therein, such references and tests incorporated herein by reference.
A general note: The purpose of a counterscreen is to sort out artefacts and off-target activity.

In data set [2] the target is T2, catalytically active fragment of SIRT3 (Homo sapiens, UniProt Q9NTG7).
T2 construct: the catalytically active fragment of SIRT3
T2 sequence (Q9NTG7 118-380 limits assumed): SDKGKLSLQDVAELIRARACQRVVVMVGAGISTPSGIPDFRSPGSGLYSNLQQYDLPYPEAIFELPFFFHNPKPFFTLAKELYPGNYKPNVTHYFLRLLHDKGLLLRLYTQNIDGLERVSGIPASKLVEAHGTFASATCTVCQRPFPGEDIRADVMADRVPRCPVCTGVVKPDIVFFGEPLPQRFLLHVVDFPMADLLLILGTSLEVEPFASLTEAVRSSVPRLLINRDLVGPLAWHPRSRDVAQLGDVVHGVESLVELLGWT
Description: Fluor-de-Lys biochemical sirtuin deacetylation assay, SIRT3 counter-screen. As to conditions: 10 μM counter-screen. The protocol:
as §1, §2

Data set [3] has as its system α-tubulin K40 acetylation (SIRT2 substrate) in N2a cells. The data set is described as follows: α-tubulin K40 acetylation (Western) in neuronal N2a cells. It is filed as cell-based. As to conditions: N2a cells, 10, 25, 50 μM, 6 h. The protocol: FIGS. 2A-B. Cell-based assay for evaluating the bioactivity of SIRT2 inhibitors. A) Extracts from neuronal N2a cells treated with 61 and 64 for 6 h were resolved on SDS-PAGE and analyzed by Western analysis using antibodies specific to acetylated α-tubulin, and normalized to GADPH and total α-tubulin (not shown) levels.
To assess SIRT2 inhibition activity in cells, an increase in α-tubulin K40 acetylation (α-tubulin is a substrate for SIRT2) in neuronal N2a and in wild type and HD ST141 cell lines was measured. In this bioactivity test, extracts from compound-treated cells were resolved on SDS-PAGE and subjected to Western analysis using primary antibodies specific to K40 acetylated α-tubulin. Trichostatin A (TSA), a potent HDAC inhibitor, was used as a positive control. To normalize the levels of acetylated α-tubulin we used total α-tubulin and GADPH proteins, detected by Western reactive antibodies specific to total α-tubulin and GADPH. […] FIGS. 2A-B show the bioactivity of 61 and 64 in N2a cells at three tested concentrations (10, 25, and 50 μM). Toxicity of the compounds was monitored in both cell lines, and most of them were non-toxic up to 50 μM in a 6 h treatment.

The nature of data set [4]: Microsomal stability screen, human. As to conditions: 1 μM.
The nature of data set [5]: Microsomal stability screen, mouse. As to conditions: 1 μM.
A further data set can be described thus: PBS Express solubility. As to conditions: aqueous buffer, kinetic from dmso stock.
For another data set, the target named is T3, SIRT2 (Homo sapiens, UniProt Q8IXJ6).
T3 construct: recombinant active enzymes SIRT1, SIRT2, and the catalytically active fragment of SIRT3
T3 sequence (Q8IXJ6 1-389): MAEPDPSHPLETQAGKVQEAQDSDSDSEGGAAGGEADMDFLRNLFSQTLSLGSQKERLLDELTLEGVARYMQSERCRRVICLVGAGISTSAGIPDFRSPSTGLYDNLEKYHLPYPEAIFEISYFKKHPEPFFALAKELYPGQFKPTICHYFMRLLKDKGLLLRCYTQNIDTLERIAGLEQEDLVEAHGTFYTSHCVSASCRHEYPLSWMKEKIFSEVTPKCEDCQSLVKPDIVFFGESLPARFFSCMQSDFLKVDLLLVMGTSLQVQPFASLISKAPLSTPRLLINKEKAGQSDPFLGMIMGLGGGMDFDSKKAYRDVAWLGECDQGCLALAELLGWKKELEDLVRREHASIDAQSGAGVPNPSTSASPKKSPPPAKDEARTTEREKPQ
Description: Fluor-de-Lys biochemical sirtuin deacetylation assay, SIRT2. As to conditions: for inhibition at 10 µM: sulfone, sulfoxide, thioether derivatives of C2-8 scaffold.

Data set [6] is described as follows: Microsomal intrinsic clearance, mouse. As to conditions: for microsomal CLint at 1 μM / half-life at 1 μM: mouse, microsomes.
The nature of data set [7]: Microsomal intrinsic clearance, human. As to conditions: for microsomal CLint at 1 μM / half-life at 1 μM: human, microsomes.

Consider `O=C(Nc1cccc([N+](=O)[O-])c1)c1cccc(S(=O)(=O)N2CCCCCC2)c1` [AK-1], for which the aqueous solubility result in data set [1] was “low aqueous solubility”.
Consider `O=C(Nc1cccc(Br)c1)c1cccc(S(=O)(=O)N2CCCCCC2)c1` [AK-7], for which, in [1], the aqueous solubility result is “low aqueous solubility”.
On to `O=C(Nc1nccs1)c1cccc(S(=O)(=O)Nc2ccc(Cl)cc2)c1` [Compound 31, 3-(N-(4-chlorophenyl)sulfamoyl)-N-(thiazol-2-yl)benzamide], for which, on SIRT1 (10 μM), the inhibition at 10 µM was determined as 65%. In addition, the “SIRT3 inhibition” value in data set [2] is “totally inactive”.
For `O=C(Nc1ccc(Cl)cn1)c1cccc(S(=O)(=O)Nc2ccc(Cl)cn2)c1` [Compound 41, N-(5-chloropyridin-2-yl)-3-(N-(5-chloropyridin-2-yl)sulfamoyl)benzamide], the “SIRT3 inhibition” value in [2] is on record as “minimal SIRT3 inhibition”.
`CN(c1ccc(F)cc1)S(=O)(=O)c1cccc(C(=O)Nc2ccc(Cl)cn2)c1` [Compound 43, N-(5-chloropyridin-2-yl)-3-(N-(4-fluorophenyl)-N-methylsulfamoyl)benzamide]: the “SIRT1 inhibition” value on SIRT1 was “minimal SIRT1 inhibition”.
With `CN(c1ccc(Cl)cc1)S(=O)(=O)c1cccc(C(=O)Nc2ccc(C(F)(F)F)cn2)c1` [Compound 56, 3-(N-(4-chlorophenyl)-N-methylsulfamoyl)-N-(5-(trifluoromethyl)pyridin-2-yl)benzamide], on SIRT1, the “SIRT1 inhibition” value is recorded as “minimal SIRT1 inhibition”.
Take `CN(c1ccc(Cl)cc1)S(=O)(=O)c1cccc(C(=O)Nc2ccc(O)cn2)c1` [Compound 58, 3-(N-(4-chlorophenyl)-N-methylsulfamoyl)-N-(5-hydroxypyridin-2-yl)benzamide]: in data set [2], the “SIRT3 inhibition” value is recorded as “minimal SIRT3 inhibition”.
Take `CN(c1ccc(Cl)cc1)S(=O)(=O)c1cccc(C(=O)Nc2ccc(S(C)(=O)=O)cc2)c1` [Compound 61, 3-(N-(4-Chlorophenyl)-N-methylsulfamoyl)-N-(4-(methylsulfonyl)phenyl)benzamide]: the “increase in α-tubulin K40 acetylation” value in data set [3] was “dose-dependent increase”. The “Mean remaining parent NADPH-free (%)” value in data set [4] is 112%; in data set [5], 100%. For the same compound, the “Mean remaining parent with NADPH (%)” value in [4] amounted to 2%; in data set [5] it was 4%.
Turning to `CN(c1ccc(Cl)cc1)S(=O)(=O)c1cccc(C(=O)Nc2ccc(C#N)cc2)c1` [Compound 64, 3-(N-(4-Chlorophenyl)-N-methylsulfamoyl)-N-(4-cyanophenyl)benzamide], in [3], the “increase in α-tubulin K40 acetylation” value was “dose-dependent increase”.
With `CC(=O)c1ccc(N(C)S(=O)(=O)c2cccc(C(=O)Nc3ccc(Cl)cn3)c2)cc1` [Compound 103, 3-(N-(4-Acetylphenyl)-N-methylsulfamoyl)-N-(5-chloropyridin-2-yl)benzamide], in data set [4], the “Mean remaining parent NADPH-free (%)” value was 82% and the “Mean remaining parent with NADPH (%)” value is recorded as 12%. For the same compound, in data set [5], the “Mean remaining parent NADPH-free (%)” value is recorded as 91% and the “Mean remaining parent with NADPH (%)” value was 0%.
As to `CC(=O)c1ccc(N(C)S(=O)(=O)c2cccc(C(=O)Nc3ccc(C#N)cc3)c2)cc1` [Compound 106, 3-(N-(4-Acetylphenyl)-N-methylsulfamoyl)-N-(4-cyanophenyl)benzamide], the “SIRT1 inhibition” value at SIRT1 is “minimal SIRT1 inhibition”. In addition, in data set [2], the “SIRT3 inhibition” value was “minimal SIRT3 inhibition”.
On to `N#Cc1ccc(NC(=O)c2cccc(S(=O)(=O)Cc3ccc(Cl)cc3)c2)cc1` [Compound 174, 3-((4-Chlorobenzyl)sulfonyl)-N-(4-cyanophenyl)benzamide], for which, in the data set “PBS Express solubility”, the solubility at 45 min was determined as 62.5 µM (≈ 25.7 µg/mL) and the solubility at 16 h was 62.5 µM (≈ 25.7 µg/mL). The compound further yielded an inhibition at 10 µM on SIRT2 of 40%. In addition, the “potency compared with 59” value on SIRT2 (SIRT2 assay (61 also cell-based tubulin deacetylation assay)) is reported as “more potent than 59”. For the same compound, the “SIRT2 inhibition potency compared with AK-1” value at SIRT2 (dose-response, five doses, side-by-side with AK-1) is “equal or just slightly better potency”. In data set [4], the “Mean remaining parent NADPH-free (%)” value was found to be 93% and the “Mean remaining parent with NADPH (%)” value is 89%. For the same compound, in data set [5], the “Mean remaining parent NADPH-free (%)” value stood at 100% and the “Mean remaining parent with NADPH (%)” value is reported as 68%.
As to `C[S+]([O-])c1ccc(NC(=O)c2cccc(SCc3ccc(Cl)cc3)c2)cc1` (stereo not shown) [Compound 182, 3-((4-chlorobenzyl)thio)-N-(4-(methylsulfinyl)phenyl)benzamide], the concentration in solution in the data set “PBS Express solubility” (solubility at 45 min) came to 15.6 µM (≈ 6.49 µg/mL). The same compound registered a solubility at 16 h in the data set “PBS Express solubility” of 15.6 µM (≈ 6.49 µg/mL). The “% remaining 60 min” value is reported as 0.8% in [6] (1 μM, 60 min) and 5.3% in data set [7] (1 μM, 60 min). Moreover, the microsomal CLint at 1 μM in data set [6] (NADPH-dependent CLint) worked out at 445 µL/min/mg; in data set [6] (NADPH-free CLint), 58 µL/min/mg; in [7] (NADPH-dependent CLint) it was 241 µL/min/mg; in data set [7] (NADPH-free CLint), 39 µL/min/mg. The half-life at 1 μM in data set [6] (NADPH-dependent T1/2 (min)) came out at 5.2 min; in [6] (NADPH-free T1/2 (min)) it was 40 min; in [7] (NADPH-dependent T1/2 (min)), 9.6 min; in data set [7] (NADPH-free T1/2 (min)), 59 min. On SIRT2, this compound returned an inhibition at 10 µM of 60%. Further, the “Fraction remaining, last time point (%)” value in the data set “Plasma half life” (Mouse plasma, 5 μM) worked out at 62%. In the data set “Plasma half life” (mouse, plasma), this compound came in with a half-life at 5 μM of 89 min.
As for `CC(C)[N+](C)(CCOC(=O)C1c2ccccc2Oc2ccccc21)C(C)C` [Propantheline, reference compound], in “Plasma half life” (Mouse plasma, 5 μM), the “Fraction remaining, last time point (%)” value turned out to be 3.4% and the “Plasma T1/2” value came out at 18 min.
